Measurements from publication PMC4460250, “Systems Pharmacology Dissecting Holistic Medicine for Treatment of Complex Diseases: An Example Using Cardiocerebrovascular Diseases Treated by TCM” (Evidence-based Complementary and Alternative Medicine : eCAM, 2015).

How the values were obtained:
[1] = in vivo; cited from earlier work
[2] = in vivo

| Compound | HIA(Human Intestinal Absorption) [1] | Class(High: HIA value ≥0.7; Low: HIA value < 0.7) [2] |
| --- | --- | --- |
| CCOc1cc(CC(=O)NC(CC(C)C)c2ccccc2N2CCCCC2)ccc1C(=O)O (stereo in doubt) [Repaglinide(R)] | 1 | High (key: High: HIA value ≥0.7; Low: HIA value < 0.7) |
| CCOc1cc(CC(=O)N[C@@H](CC(C)C)c2ccccc2N2CCCCC2)ccc1C(=O)O [Repaglinide(S)] | 1 | High (key: High: HIA value ≥0.7; Low: HIA value < 0.7) |
| CC(C)(Oc1ccc([C@@H]2CC2(Cl)Cl)cc1)C(=O)O [Ciprofibrate(S)] | 0.99 | High (key: High: HIA value ≥0.7; Low: HIA value < 0.7) |
| CC(C)(C)NC[C@H](O)c1cc(O)cc(O)c1 [Terbutaline(R)] | 0.63 | Low (key: High: HIA value ≥0.7; Low: HIA value < 0.7) |
| CC(C)(C)NC[C@H](O)c1ccc(O)c(CO)c1 [Albuterol(R)] | 0.83 | High (key: High: HIA value ≥0.7; Low: HIA value < 0.7) |
| COc1cc2nc(N3CCN(C(=O)[C@@H]4COc5ccccc5O4)CC3)nc(N)c2cc1OC [Doxazosin(S)] | 1 | High (key: High: HIA value ≥0.7; Low: HIA value < 0.7) |
| COC(=O)C1=C(C)NC(C)=C(C(=O)OCCN(C)Cc2ccccc2)[C@@H]1c1cccc([N+](=O)[O-])c1 [Nicardipine(R)] | 0.95 | High (key: High: HIA value ≥0.7; Low: HIA value < 0.7) |
| O=C(c1ccccc1)c1ccc2n1CC[C@@H]2C(=O)O [Ketorolac(S)] | 0.95 | High (key: High: HIA value ≥0.7; Low: HIA value < 0.7) |
| CC(C)NC[C@H](O)COc1cccc2[nH]ccc12 [Pindolol(S)] | 0.9 | High (key: High: HIA value ≥0.7; Low: HIA value < 0.7) |
| C[C@@H](c1cc2ccccc2s1)N(O)C(N)=O [Zileuton(S)] | 1 | High (key: High: HIA value ≥0.7; Low: HIA value < 0.7) |
| O=[N+]([O-])O[C@H]1CO[C@H]2[C@@H]1OC[C@H]2O [Isosorbide-2-mononitrate] | 0.9 | High (key: High: HIA value ≥0.7; Low: HIA value < 0.7) |
| CN1CCN(C(=O)O[C@H]2c3nccnc3C(=O)N2c2ccc(Cl)cn2)CC1 [Zopiclone(S)] | 0.98 | High (key: High: HIA value ≥0.7; Low: HIA value < 0.7) |
| O[C@@](CCN1CCCC1)(c1ccccc1)C1CCCCC1 [Procyclidine(R)] | 1 | High (key: High: HIA value ≥0.7; Low: HIA value < 0.7) |
| Cc1ccccc1N1C(=O)c2cc(S(N)(=O)=O)c(Cl)cc2N[C@@H]1C [Metolazone(S)] | 0.64 | Low (key: High: HIA value ≥0.7; Low: HIA value < 0.7) |
| CCC1(CCC(C)C)C(=O)NC(=O)NC1=O [Amobarbital] | 0.95 | High (key: High: HIA value ≥0.7; Low: HIA value < 0.7) |
| COc1cc2nc(N3CCN(C(=O)[C@@H]4CCCO4)CC3)nc(N)c2cc1OC [Terazosin(S)] | 0.91 | High (key: High: HIA value ≥0.7; Low: HIA value < 0.7) |
| CN1C(=O)[C@@H](O)N=C(c2ccccc2Cl)c2cc(Cl)ccc21 [Lormetazepam(R)] | 1 | High (key: High: HIA value ≥0.7; Low: HIA value < 0.7) |
| CC1(C)S[C@@H]2[C@H](NC(=O)C(C(=O)Oc3ccccc3)c3ccccc3)C(=O)N2[C@H]1C(=O)O (stereo partly drawn) [Carfecillin(R)] | 0.99 | High (key: High: HIA value ≥0.7; Low: HIA value < 0.7) |
| O=C1CN=C(c2ccccc2Cl)c2cc([N+](=O)[O-])ccc2N1 [Clonazepam] | 0.8 | High (key: High: HIA value ≥0.7; Low: HIA value < 0.7) |
| C[C@@H]1COc2c(N3CCN(C)CC3)c(F)cc3c(=O)c(C(=O)O)cn1c23 [Ofloxacin(R)] | 1 | High (key: High: HIA value ≥0.7; Low: HIA value < 0.7) |
| OC[C@H](O)COc1ccc(Cl)cc1 [Chlorphenesin(S)] | 1 | High (key: High: HIA value ≥0.7; Low: HIA value < 0.7) |
| CCN(CCCCOC(=O)c1ccc(OC)c(OC)c1)[C@H](C)Cc1ccc(OC)cc1 [Mebeverine(R)] | 0.9 | High (key: High: HIA value ≥0.7; Low: HIA value < 0.7) |
| COc1ccc(CCN(C)CCC[C@@](C#N)(c2cc(OC)c(OC)c(OC)c2)C(C)C)cc1OC [Gallopamil(S)] | 0.97 | High (key: High: HIA value ≥0.7; Low: HIA value < 0.7) |
| C[C@H](O)Cn1cnc2c1c(=O)n(C)c(=O)n2C [Proxyphylline(S)] | 1 | High (key: High: HIA value ≥0.7; Low: HIA value < 0.7) |
| COC(=O)C1=C(C#N)NC(C)=C(C(=O)OC(C)C)[C@@H]1c1cccc([N+](=O)[O-])c1 [Nilvadipine(S)] | 1 | High (key: High: HIA value ≥0.7; Low: HIA value < 0.7) |

| Compound | HIA(Human Intestinal Absorption) [1] | Class(High: HIA value ≥0.7; Low: HIA value < 0.7) [2] |
| --- | --- | --- |
| C[C@]12CCC(=O)C=C1CC[C@@H]1[C@@H]2[C@@H](O)C[C@@]2(C)[C@H]1CC[C@]2(O)C(=O)CO [Hydrocortisone] | 0.91 | High (key: High: HIA value ≥0.7; Low: HIA value < 0.7) |
| C[C@@H](CN(C)C)CN1c2ccccc2Sc2ccccc21 [Trimeprazine(S)] | 0.8 | High (key: High: HIA value ≥0.7; Low: HIA value < 0.7) |
| CCOC(=O)C1(c2ccccc2)CCN(C)CC1 [Meperidine] | 1 | High (key: High: HIA value ≥0.7; Low: HIA value < 0.7) |
| CC(C)(C)NC[C@H](O)c1ccc(O)c(CO)n1 [Pirbuterol(S)] | 0.6 | Low (key: High: HIA value ≥0.7; Low: HIA value < 0.7) |
| COc1ccccc1OCCNC[C@H](O)COc1cccc2[nH]c3ccccc3c12 [Carvedilol(S)] | 0.8 | High (key: High: HIA value ≥0.7; Low: HIA value < 0.7) |
| C[C@H](CN1c2ccccc2Sc2ccccc21)N(C)C [Promethazine(R)] | 0.95 | High (key: High: HIA value ≥0.7; Low: HIA value < 0.7) |
| C[C@H](CN(C)C)CN1c2ccccc2Sc2ccccc21 [Trimeprazine(R)] | 0.8 | High (key: High: HIA value ≥0.7; Low: HIA value < 0.7) |
| CC[C@@]1(c2cccc(O)c2)CCCCN(C)C1 [Meptazinol(S)] | 1 | High (key: High: HIA value ≥0.7; Low: HIA value < 0.7) |
| C[C@@H](NC(C)(C)C)C(=O)c1cccc(Cl)c1 [Bupropion(R)] | 0.87 | High (key: High: HIA value ≥0.7; Low: HIA value < 0.7) |
| CN1CC[C@]23c4c5ccc(O)c4O[C@H]2[C@@H](O)C=C[C@H]3[C@H]1C5 [Morphine] |  | High (key: High: HIA value ≥0.7; Low: HIA value < 0.7) |
| CN1C(=O)CN=C(c2ccccc2)c2cc(Cl)ccc21 [Diazepam] |  | High (key: High: HIA value ≥0.7; Low: HIA value < 0.7) |
| Cc1cc(NS(=O)(=O)c2ccc(N)cc2)no1 [Sulfamethoxazole] |  | High (key: High: HIA value ≥0.7; Low: HIA value < 0.7) |
| CC(C)NC[C@@H](O)COc1ccc(COCCOC(C)C)cc1 [Bisoprolol(R)] |  | High (key: High: HIA value ≥0.7; Low: HIA value < 0.7) |
| C[C@]12C=CC(=O)C=C1CC[C@@H]1[C@@H]2[C@@H](O)C[C@@]2(C)[C@H]1CC[C@]2(O)C(=O)CO [Prednisolone] |  | High (key: High: HIA value ≥0.7; Low: HIA value < 0.7) |
| CN1C(=O)[C@@H](O)N=C(c2ccccc2)c2cc(Cl)ccc21 [Temazepam(R)] |  | High (key: High: HIA value ≥0.7; Low: HIA value < 0.7) |
| C#C[C@]1(O)CC[C@H]2[C@@H]3CCC4=CC(=O)CC[C@@H]4[C@H]3CC[C@@]21CC [Levonorgestrel] |  | High (key: High: HIA value ≥0.7; Low: HIA value < 0.7) |
| O=C(O)Cc1ccccc1Nc1c(Cl)cccc1Cl [Diclofenac] |  | High (key: High: HIA value ≥0.7; Low: HIA value < 0.7) |
| NS(=O)(=O)c1cc2c(cc1Cl)NCNS2(=O)=O [Hydrochlorothiazide] |  | Low (key: High: HIA value ≥0.7; Low: HIA value < 0.7) |
| CC(C)NC[C@H](O)COc1ccc(COCCOC(C)C)cc1 [Bisoprolol(S)] |  | High (key: High: HIA value ≥0.7; Low: HIA value < 0.7) |
| ClC(Cl)Cl [Chloroform] |  | High (key: High: HIA value ≥0.7; Low: HIA value < 0.7) |
| Cc1cnc(C(=O)NCCc2ccc(S(=O)(=O)NC(=O)NC3CCCCC3)cc2)cn1 [Glipizide] |  | High (key: High: HIA value ≥0.7; Low: HIA value < 0.7) |
| Cc1nnc2n1-c1ccc(Cl)cc1C(c1ccccc1Cl)=NC2 [Triazolam] |  | High (key: High: HIA value ≥0.7; Low: HIA value < 0.7) |
| CN1C(=O)[C@H](O)N=C(c2ccccc2)c2cc(Cl)ccc21 [Temazepam(S)] |  | High (key: High: HIA value ≥0.7; Low: HIA value < 0.7) |
| CCN(CC)CCNC(=O)c1cc(Cl)c(N)cc1OC [Metoclopramide] |  | High (key: High: HIA value ≥0.7; Low: HIA value < 0.7) |
| O=C1Nc2ccc(Cl)cc2C(c2ccccc2)=N[C@H]1O [Oxazepam(S)] |  | High (key: High: HIA value ≥0.7; Low: HIA value < 0.7) |
